pIC50: −log10 of the molar value. Values joined by “and” are separate entries in the source; they are usually repeats but may differ in a detail not shown here. Equal values may be shown once.
Tested on: 349418-098-R-PDC complex spheroid viability
Test: Anticancer human tumor 349418-098-R-PDC patient-derived lung adenocarcinoma cell line growth inhibition
Details: for viability, T/C: stronger effect = lower value
Text: Multicellular complex tumor spheroid response to LSD1 Inhibitor Iadademstat in combination with a variety of drugs and investigational agents in selected tumor cell lines
The current study was undertaken to assess response to LSD1 inhibitors in combination with standard-of-care drugs and investigational agents in solid tumor complex spheroid models as well as in the K-562 leukemia. Complex spheroids include a stromal component modeled by human endothelial cells (HUVEC) and fibroblasts modeled by human mesenchymal stem cells (MSCs). The concentration ranges selected for each drug and investigational agent were based upon clinically achievable concentrations if the clinical Cmax of the agent was known.
Compounds. The drugs and investigational agents used in this study are listed on Table 1. All of the agents used, including staurosporine (NSC755774) and gemcitabine (NSC613327), were obtained from the Developmental Therapeutics Program, NCI. FDA-approved anticancer drugs are available from the NCI at http://dtp.nci.nih.gov/branches/dscb/oncology_drugset_explanation.html. Drugs and investigational agents were >95% pure by proton nuclear magnetic resonance (NMR) and liquid chromatography/mass spectrometry (LC/MS). Stock solutions were prepared at 400x in DMSO, stored at -70 degrees C, and diluted in fresh medium prior to their use. The final concentration of DMSO in cell culture wells never exceeded 0.25% (v/v). The FDA-approved anticancer drug set is available from the Developmental Therapeutics Program at https://dtp.cancer.gov/organization/dscb/obtaining/available_plates.htm. All drugs and investigational agents were tested over a range starting from a high concentration at or near the clinical Cmax and decreasing in half-log increments. If the clinical Cmax for an agent had not been determined, the highest concentration tested was 10 microM.
Cell Lines. The patient-derived cancer cell (PDC) lines: 292921-168-R-J2-PDC, K24384-001-R-PDC, and 521955-158-R2-J5-PDC pancreatic carcinomas, 556581-035-R-J1 ovarian carcinoma, 324938-238-R-J1-PDC, 855422-203-R-J1-PDC and 883617-216-R-J1-PDC urothelial bladder carcinomas, 743489-274-T-PDC renal cell carcinoma, 138582-R-J1 Merkel cell tumor, K60290-347-R-J1 and K57222-313-R-J1-PDC glioblastomas, 653999-131-R-J2-PDC, LG0703-F948-PDC, and 349418-098-R-PDC non-small cell lung carcinomas, 885512-296-R-J2-PDC, 171881-019-R-J1-PDC breast carcinomas and 186277-243-T-J2-PDC and 233499-124-R-J2-PDC colon carcinomas were obtained from the NCI Patient-Derived Models Repository (PDMR, https://pdmr.cancer.gov). The established cell lines NCI/ADR-RES (RRID:CVCL_14520 and OVCAR-5 (RRID:CVCL_1628) ovarian carcinomas, 786-O (RRID:CVCL_1051) and A498 (RRID:CVCL_A498) renal cell carcinoma, NCI-H211 (ATCC, cat. CRL-5824; RRID:CVCL_1529), NCI-H196 (ATCC, cat. CRL-5823, RRID:CVCL_1509), SW 1271 (ATCC, cat. CRL-2177, RRID:CVCL_1716) and NCI-H1876 (ATCC, cat. CRL-5902, RRID:CVCL_1503) small cell lung carcinomas, MDA-MB-231 (RRID:CVCL_0062) and MDA-MB-468 (RRID:CVCL_0419)breast carcinomas (10-12). Pooled donor human umbilical vein endothelial cells (HUVEC, Lonza, cat. CC-2519) and human mesenchymal stem cells (hMSC, Lonza, cat. PT-2501) were purchased from Lonza (Walkersville, MD).
Cell Culture. All cells were maintained in an incubator at 37 degrees C and 5% CO2 with 95% humidity. The PDC lines were cultured according to standard operating procedures established by the NCI PDMR (https://pdmr.cancer.gov). Briefly all PDCs were thawed and cultured in Matrigel-coated flasks prepared with a working solution of 1X Ham's F-12 nutrient mix, without supplementation (Invitrogen, Waltham, MA, cat. 11765054), 100 U/mL penicillin-streptomycin (Invitrogen, cat. 15140122), and 2.5% Matrigel (Corning Inc., Corning, NY, cat. 354248) for the first three passages. […]
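Further: spheroids exposed to agents for seven days before readout.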
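Wherever viability, T/C is given: 100% = DMSO vehicle control wells.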

Structure (SMILES)	viability, T/C (compound 0.0316 µM)	viability, T/C (compound 0.1 µM)	viability, T/C (compound 0.316 µM)	viability, T/C (compound 1 µM)	pIC50 (curve of compound)	viability, T/C (compound 0.00949 µM)	viability, T/C (compound 0.03 µM)	viability, T/C (compound 0.0949 µM)	viability, T/C (compound 0.3 µM)	also measured
COc1ccc([C@@H](O)c2cc(-c3ncnc4cc(N5CCOCC5)ccc34)c(F)cc2Cl)nn1	91.6% and 95.8%	79.4% and 83.2%	53.7% and 74.8%	29.1% and 41.5%	6.42 and 6.13	–	–	–	–	viability, T/C (compound 3.16 µM): 9.45% and 15%; viability, T/C (compound 10 µM): 6.34% and 4.43%
Cn1ncnc1C1c2n[nH]c(=O)c3cc(F)cc(c23)NC1c1ccc(F)cc1 (centres undefined)	97.8% and 78.5%	89% and 77.8%	–	–	< 7.00	–	–	–	–	viability, T/C (compound 0.000316 µM): 97.2% and 97.6%; viability, T/C (compound 0.001 µM): 93.6% and 102%; viability, T/C (compound 0.00316 µM): 101% and 98.2%; viability, T/C (compound 0.01 µM): 94.4% and 94.1%
NC1CC1c1ccc(-c2cccc(O)c2)cc1 (centres undefined)	–	–	–	113% [middle of 25 runs]	–	–	–	–	–	pIC50 (compound alone, run of 02/01/2022): < 5.00
NC1CCC(NC2CC2c2ccccc2)CC1 (centres undefined)	–	–	106% (2×) and 102%	–	–	–	–	–	–	viability, T/C (compound 3.16 µM): 103% [middle of 25 runs]; pIC50 (compound alone, run of 01/18/2022): < 5.00
NS(=O)(=O)OCC1CC(n2ccc3c(NC4CCc5ccccc54)ncnc32)CC1O (centres undefined)	–	–	–	–	7.15 and 7.29	97.7% and 104%	98% and 68.5%	33.6% and 29.1%	18.3% and 11%	viability, T/C (compound 0.949 µM): 7.34% and 5.1%; viability, T/C (compound 3 µM): 4.71% and 4.35%
Nc1ccccc1NC(=O)c1ccc(CNC(=O)OCc2cccnc2)cc1	–	–	–	–	6.70 and 7.11	92.5% and 80.8%	83% and 67.2%	63.3% and 46.6%	44.4% and 22.8%	viability, T/C (compound 0.949 µM): 17.9% and 5.31%; viability, T/C (compound 3 µM): 5.6% and 3.19%
Nc1ccn(C2OC(CO)C(O)C2(F)F)c(=O)n1 (centres undefined)	–	–	–	–	> 9.02	4.99% and 4.4%	4% and 4.8%	4.25% and 4.46%	4.05% and 4.24%	viability, T/C (compound 0.000949 µM): 5.35% and 15%; viability, T/C (compound 0.003 µM): 5.18% and 4.23%
Nc1ncn(C2CC(O)C(CO)O2)c(=O)n1 (centres undefined)	47.1% and 75.4%	32.5% and 45.5%	27.8% and 37.1%	23.9% and 27.6%	7.67 and 7.05	–	–	–	–	viability, T/C (compound 0.00316 µM): 88.2% and 96.1%; viability, T/C (compound 0.01 µM): 59% and 91.5%
Nc1ncn(C2CC(O)C(CO)S2)c(=O)n1 (centres undefined)	–	–	–	–	7.80 and 7.81	64.8% and 63.6%	33.8% and 29.8%	16.8% and 11.8%	8.91% and 5.28%	viability, T/C (compound 0.000949 µM): 104% and 92.4%; viability, T/C (compound 0.003 µM): 84% and 91.7%
O=C(C=Cc1cccc(S(=O)(=O)Nc2ccccc2)c1)NO	–	–	–	–	6.93 and 7.28	81.2% and 75%	71.6% and 70.5%	58.6% and 19.1%	17.8% and 2.96%	viability, T/C (compound 0.949 µM): 3.74% and 0.75%
O=C(C=Cn1cnc(-c2cc(C(F)(F)F)cc(C(F)(F)F)c2)n1)NNc1cnccn1	6.32% and 7.96%	3.87% and 4.72%	2.92% and 3.05%	2.37% and 2.41%	> 8.50	–	–	–	–	viability, T/C (compound 0.00316 µM): 19.9% and 22.1%; viability, T/C (compound 0.01 µM): 8.55% and 22.4%
O=C(c1cc(Cc2n[nH]c(=O)c3ccccc23)ccc1F)N1CCN(C(=O)C2CC2)CC1	94.6% and 101%	97.8% and 94.5%	78.8% and 90.7%	65.8% and 85.2%	5.45 and 5.17	–	–	–	–	viability, T/C (compound 3.16 µM): 53.2% and 64%; viability, T/C (compound 10 µM): 38.9% and 42.3%

Reference: PubChem BioAssay AID1918936 (Molecular Pharmacology Branch, DTP, NCI, 2023)
